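Step 1: Grow cells in 96-well plates. Step 2: Expose to compound for 48 hours at 5 concentrations. Step 3: Interpolate endpoints linearly; if unreached, use highest concentration. Here, GI50 denotes the concentration required for 50% inhibition of growth. TGI denotes the concentration required for complete inhibition of growth.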
Columns and labels:
Experiment in all cases: inhibition of tumour cell growth, NCI panel, 48 h
SK-MEL-2 melanoma = system: SK-MEL-2 melanoma
RPMI-8226 leukemia = system: RPMI-8226 leukemia
MDA-MB-231 breast = system: MDA-MB-231 breast
BT-549 breast = system: BT-549 breast
HCC-2998 colon = system: HCC-2998 colon
T-47D breast = system: T-47D breast
SN12C renal = system: SN12C renal
K-562 leukemia = system: K-562 leukemia
NCI-H226 lung = system: NCI-H226 lung
ACHN renal = system: ACHN renal
HOP-92 NSCLC = system: HOP-92 NSCLC
SK-OV-3 ovarian = system: SK-OV-3 ovarian
LOX IMVI melanoma = system: LOX IMVI melanoma
A549 NSCLC = system: A549 NSCLC
A498 renal = system: A498 renal
NCI/ADR-RES ovarian = system: NCI/ADR-RES ovarian
COLO 205 colon = system: COLO 205 colon
MCF7 breast = system: MCF7 breast
CCRF-CEM leukemia = system: CCRF-CEM leukemia
HCT-15 colon = system: HCT-15 colon
EKVX NSCLC = system: EKVX NSCLC
SK-MEL-28 melanoma = system: SK-MEL-28 melanoma
UO-31 renal = system: UO-31 renal
SF-268 CNS = system: SF-268 CNS
OVCAR-8 ovarian = system: OVCAR-8 ovarian
U251 CNS = system: U251 CNS
HT29 colon = system: HT29 colon
OVCAR-5 ovarian = system: OVCAR-5 ovarian
CAKI-1 renal = system: CAKI-1 renal
786-0 renal = system: 786-0 renal
OVCAR-4 ovarian = system: OVCAR-4 ovarian
SK-MEL-5 melanoma = system: SK-MEL-5 melanoma
DU-145 prostate = system: DU-145 prostate
NCI-H460 lung = system: NCI-H460 lung
TK-10 renal = system: TK-10 renal
SNB-75 CNS = system: SNB-75 CNS
HCT-116 colon = system: HCT-116 colon
IGROV1 ovarian = system: IGROV1 ovarian
SW-620 colon = system: SW-620 colon
KM12 colon = system: KM12 colon
NCI-H522 lung = system: NCI-H522 lung
SR leukemia = system: SR leukemia
SNB-19 CNS = system: SNB-19 CNS
PC-3 prostate = system: PC-3 prostate
MALME-3M melanoma = system: MALME-3M melanoma
HS 578T breast = system: HS 578T breast
HOP-62 NSCLC = system: HOP-62 NSCLC
MDA-MB-435 = system: MDA-MB-435
RXF 393 renal = system: RXF 393 renal
UACC-62 melanoma = system: UACC-62 melanoma
UACC-257 melanoma = system: UACC-257 melanoma
MOLT-4 leukemia = system: MOLT-4 leukemia
M14 melanoma = system: M14 melanoma
SF-295 CNS = system: SF-295 CNS
HL-60(TB) leukemia = system: HL-60(TB) leukemia
SF-539 CNS = system: SF-539 CNS

`CCNC(=O)Oc1ccc(/C(=C(/C)c2ccc(OC)cc2)c2ccc(OCCN3CCCCCC3)cc2)cc1` was tested, and the GI50 (SK-MEL-2 melanoma) was 5.18 µM, the TGI (SK-MEL-2 melanoma) was 11.2 µM and the GI50 (RPMI-8226 leukemia) was 1.18 µM. For the same compound, the TGI (RPMI-8226 leukemia) was 3.21 µM, the GI50 (MDA-MB-231 breast) was 2.74 µM and the TGI (MDA-MB-231 breast) was 9.28 µM. For the same compound, the GI50 (BT-549 breast) was 5.06 µM, the TGI (BT-549 breast) was 10.9 µM and the GI50 (HCC-2998 colon) was 2.93 µM. It also gave a TGI (HCC-2998 colon) of 9.29 µM, a GI50 (T-47D breast) of 1.23 µM and a TGI (T-47D breast) of 7.88 µM. For the same compound, the GI50 (SN12C renal) was 5.55 µM, the TGI (SN12C renal) was 12.1 µM and the GI50 (K-562 leukemia) was 1.22 µM. The TGI (K-562 leukemia) was 3.37 µM, the GI50 (NCI-H226 lung) was 6.42 µM and the TGI (NCI-H226 lung) was 14.6 µM. For the same compound, the GI50 (ACHN renal) was 6.04 µM, the TGI (ACHN renal) was 12.2 µM and the GI50 (HOP-92 NSCLC) was 1.89 µM. It also gave a TGI (HOP-92 NSCLC) of 9.17 µM, a GI50 (SK-OV-3 ovarian) of 5.01 µM and a TGI (SK-OV-3 ovarian) of 11.1 µM. For the same compound, the GI50 (LOX IMVI melanoma) was 0.865 µM, the TGI (LOX IMVI melanoma) was 1.91 µM and the GI50 (A549 NSCLC) was 3.88 µM. For the same compound, the TGI (A549 NSCLC) was 10.3 µM, the GI50 (A498 renal) was 2.67 µM and the TGI (A498 renal) was 9.65 µM. For the same compound, the GI50 (NCI/ADR-RES ovarian) was 4.41 µM, the TGI (NCI/ADR-RES ovarian) was 11.1 µM and the GI50 (COLO 205 colon) was 1.07 µM. The TGI (COLO 205 colon) was 2.38 µM, the GI50 (MCF7 breast) was 0.786 µM and the TGI (MCF7 breast) was 7.41 µM. For the same compound, the GI50 (CCRF-CEM leukemia) was 2.25 µM, the TGI (CCRF-CEM leukemia) was 33.4 µM and the GI50 (HCT-15 colon) was 1.57 µM. It also gave a TGI (HCT-15 colon) of 6.68 µM, a GI50 (EKVX NSCLC) of 6.39 µM and a TGI (EKVX NSCLC) of 13.5 µM. The GI50 (SK-MEL-28 melanoma) was 1.45 µM, the TGI (SK-MEL-28 melanoma) was 4.48 µM and the GI50 (UO-31 renal) was 1.43 µM. For the same compound, the TGI (UO-31 renal) was 5.53 µM, the GI50 (SF-268 CNS) was 6.69 µM and the TGI (SF-268 CNS) was 15 µM. For the same compound, the GI50 (OVCAR-8 ovarian) was 5.72 µM, the TGI (OVCAR-8 ovarian) was 12.2 µM and the GI50 (U251 CNS) was 2.55 µM. It also gave a TGI (U251 CNS) of 8.87 µM, a GI50 (HT29 colon) of 1.66 µM and a TGI (HT29 colon) of 6.08 µM. For the same compound, the GI50 (OVCAR-5 ovarian) was 6.48 µM, the TGI (OVCAR-5 ovarian) was 12.8 µM and the GI50 (CAKI-1 renal) was 2.34 µM. For the same compound, the TGI (CAKI-1 renal) was 8.3 µM, the GI50 (786-0 renal) was 1.86 µM and the TGI (786-0 renal) was 6.78 µM. The GI50 (OVCAR-4 ovarian) was 5.16 µM, the TGI (OVCAR-4 ovarian) was 11.7 µM and the GI50 (SK-MEL-5 melanoma) was 2.23 µM. It also gave a TGI (SK-MEL-5 melanoma) of 8.13 µM, a GI50 (DU-145 prostate) of 6.76 µM and a TGI (DU-145 prostate) of 13.2 µM. The GI50 (NCI-H460 lung) was 1.95 µM, the TGI (NCI-H460 lung) was 6.91 µM and the GI50 (TK-10 renal) was 9.35 µM. The TGI (TK-10 renal) was 16.5 µM, the GI50 (SNB-75 CNS) was 6.03 µM and the TGI (SNB-75 CNS) was 12.9 µM. For the same compound, the GI50 (HCT-116 colon) was 2.57 µM, the TGI (HCT-116 colon) was 8.68 µM and the GI50 (IGROV1 ovarian) was 5.42 µM. For the same compound, the TGI (IGROV1 ovarian) was 12.5 µM, the GI50 (SW-620 colon) was 1.3 µM and the TGI (SW-620 colon) was 3.28 µM. For the same compound, the GI50 (KM12 colon) was 8.88 µM, the TGI (KM12 colon) was 16.7 µM and the GI50 (NCI-H522 lung) was 6.43 µM. It also gave a TGI (NCI-H522 lung) of 13.5 µM, a GI50 (SR leukemia) of 1.06 µM and a TGI (SR leukemia) of 2.76 µM. The GI50 (SNB-19 CNS) was 5.92 µM, the TGI (SNB-19 CNS) was 12.2 µM and the GI50 (PC-3 prostate) was 2.75 µM. For the same compound, the TGI (PC-3 prostate) was 9.67 µM, the GI50 (MALME-3M melanoma) was 1.1 µM and the TGI (MALME-3M melanoma) was 2.57 µM. It also gave a GI50 (HS 578T breast) of 2.48 µM, a TGI (HS 578T breast) of 11.3 µM and a GI50 (HOP-62 NSCLC) of 5.84 µM. For the same compound, the TGI (HOP-62 NSCLC) was 12.3 µM, the GI50 (MDA-MB-435) was 3.69 µM and the TGI (MDA-MB-435) was 10.3 µM. For the same compound, the GI50 (RXF 393 renal) was 1.3 µM, the TGI (RXF 393 renal) was 5.03 µM and the GI50 (UACC-62 melanoma) was 1.79 µM. For the same compound, the TGI (UACC-62 melanoma) was 6.33 µM, the GI50 (UACC-257 melanoma) was 1.06 µM and the TGI (UACC-257 melanoma) was 2.76 µM. It also gave a GI50 (MOLT-4 leukemia) of 1.44 µM, a TGI (MOLT-4 leukemia) of 5.06 µM and a GI50 (M14 melanoma) of 0.913 µM. For the same compound, the TGI (M14 melanoma) was 1.83 µM, the GI50 (SF-295 CNS) was 1.15 µM and the TGI (SF-295 CNS) was 3.44 µM. The GI50 (HL-60(TB) leukemia) was 1.39 µM, the TGI (HL-60(TB) leukemia) was 4.59 µM and the GI50 (SF-539 CNS) was 2.08 µM. It also gave a TGI (SF-539 CNS) of 7.74 µM.

Source: PubChem BioAssay (NCI)
